# Laboratory results reported in patent US12275995B2, “Lysinibacillus sphaericus and aspirin chemoprevention of colorectal cancer” (priority 2019, dated 2025).
# Test system: Lysinibacillus sphaericus
# Assay: In vitro incubation of L. sphaericus with antibiotics (cell growth)
# Type: cell-based
# Conditions: in vitro incubation with single antibiotics of the cocktail
compound,measurement,value
CC1(C)S[C@@H]2[C@H](NC(=O)[C@H](N)c3ccccc3)C(=O)N2[C@H]1C(=O)O [ampicillin],growth of L. sphaericus,inhibiting the growth
